Assay results reported in patent US7083933B1, “Methods for identification of modulators of OSGPR116 activity” (Prosidion Limited, priority 2003, dated 2006).

What was measured:
[1] = target: T1, mouse homolog of OSGPR116 (Mus musculus, UniProt Q7TQP3); assay: Yeast cell-based Fus1p-LacZ reporter assay, mouse OSGPR116; conditions: mouse isoform, FIG. 9b; Galpha-q5 yeast, 4h incubation
T1 construct: expressed in transfected cells; host or cells: engineered yeast (GPA1 and Ste3 deleted, G-alpha chimera, Fus1p-LacZ reporters)
T1 sequence (Q7TQP3 1-335): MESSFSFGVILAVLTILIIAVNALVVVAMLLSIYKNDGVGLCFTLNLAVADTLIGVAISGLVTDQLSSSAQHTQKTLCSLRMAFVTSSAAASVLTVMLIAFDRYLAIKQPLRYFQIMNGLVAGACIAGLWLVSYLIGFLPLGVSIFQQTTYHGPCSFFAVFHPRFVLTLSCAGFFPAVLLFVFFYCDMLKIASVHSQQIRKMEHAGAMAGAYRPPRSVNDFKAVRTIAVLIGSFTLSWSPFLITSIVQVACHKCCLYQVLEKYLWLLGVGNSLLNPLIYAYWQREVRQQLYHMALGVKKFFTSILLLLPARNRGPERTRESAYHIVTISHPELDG
From the text: (§1) The yeast cell-based reporter assays have previously been described in the literature (e.g. see Miret J. J., et. al. (2002) J. Biol. Chem. 277:6881–6887; Campbell R. M., et. al. (1999) Bioorg Med. Chem. Lett. 9:2413–2418; King K., et. al. (1990) Science. 250:121–123); WO 99/14344; WO 00/12704; and U.S. Pat. No. 6,100,042). Briefly, yeast cells have been engineered such that the endogenous yeast G-alpha (GPA1) has been deleted and replaced with G-protein chimeras constructed using multiple techniques. Additionally the endogenous yeast alpha-cell GPCR, Ste3 has been deleted to allow for a […] expression of a mammalian GPCR of choice. In the yeast, elements of the pheromone signaling transduction pathway, which are conserved in eukaryotic cells (for example, the mitogen-activated protein kinase pathway), drive the expression of Fus1. By placing β-galactosidase (LacZ) under the control of the Fus1 promoter (Fus1p), a system has been developed whereby receptor activation leads to an enzymatic read-out. Different yeast strains (e.g. FIG. 10) denote the presence of different G-alpha chimeras (see “yeast reporter assays” in Results section below for definitions).
(§2) Yeast cells are transformed by an adaptation of the Lithium acetate method described by Agatep et.al. (Agatep, R., et. al. (1998) Transformation of Saccharomyces cerevisiae by the lithium acetate/single-stranded carrier DNA/polyethylene glycol (LiAc/ss-DNA/PEG) protocol. Technical Tips Online, Trends Journals, Elsevier). Briefly, yeast cells are grown overnight on yeast tryptone plates (YT). Carrier single-stranded DNA (10 μg), 2 μg of each of two Fus1p-LacZ reporter plasmids (one with URA selection marker and one with TRP), 2 μg of OSGPR116 in yeast expression vector (2μ origin of replication) and a lithium acetate/polyethylene glycol/TE buffer is pipetted into an Epindorf tube. The yeast expression plasmid containing the receptor/no receptor control has a LEU marker. Yeast cells are inoculated into this mixture and the reaction proceeds at 30° C. for 60 minutes. The yeast cells are then heat-shocked at 42° C. for 15 minutes. The cells are then washed and spread on selection plates. The selection plates are synthetic defined yeast media minus LEU, URA and TRP (SD-LUT). After incubating at 30° C. for 2–3 days, colonies that grow on the selection plates are then tested in the LacZ assay.
(§3) In order to perform fluorometric enzyme assays for β-galactosidase, yeast cells were grown overnight in liquid SD-LUT media to an unsaturated concentration (i.e. the cells are still dividing and have not yet reached stationary phase). They are diluted in fresh media to an optimal assay concentration and 90 μL of yeast cells were added to 96-well black polystyrene plates (Costar). Compounds, dissolved in ethanol and diluted in a 1% BSA solution to 10× concentration, were added to the plates and the yeast are placed at 30° C. for 4h. After 4h, the substrate for the β-galactosidase is added to each well. The substrate may yield a fluorescent or calorimetric read-out upon the activity of the β-galactosidase. In these experiments, Fluorescein di (β-D-galactopyranoside) was used (FDG), a substrate for the enzyme that releases fluorescein, allowing a fluorometric read-out. 20 μL of 500 uM FDG was used. After incubation of the cells with the substrate for 30–60 mins, 20 μL of 1M sodium carbonate is added to terminate the reaction and enhance the fluorescent signal. The plates were then read in a fluorometer at 485/535 nm. As an alternate read-out system, the yeast are also engineered with a Fus1p-HIS gene which means that activation of the receptor can also be measured through the growth of the yeast in a […] deficient media.

[2] = test system: vector transformed yeast cells; assay: Yeast reporter assay, vector transformed (no receptor) control yeast; assay type: cell-based
From the text: as §1, §2, §3

OSGPR116 [3] = target: T2, OSGPR116 (Homo sapiens, UniProt Q8TDV5); assay: Adenylate cyclase (alpha-screen cAMP) assay in ASPC-1 cells endogenously expressing OSGPR116; assay type: cell-based; conditions: FIG. 11
T2 sequence (Q8TDV5 1-335): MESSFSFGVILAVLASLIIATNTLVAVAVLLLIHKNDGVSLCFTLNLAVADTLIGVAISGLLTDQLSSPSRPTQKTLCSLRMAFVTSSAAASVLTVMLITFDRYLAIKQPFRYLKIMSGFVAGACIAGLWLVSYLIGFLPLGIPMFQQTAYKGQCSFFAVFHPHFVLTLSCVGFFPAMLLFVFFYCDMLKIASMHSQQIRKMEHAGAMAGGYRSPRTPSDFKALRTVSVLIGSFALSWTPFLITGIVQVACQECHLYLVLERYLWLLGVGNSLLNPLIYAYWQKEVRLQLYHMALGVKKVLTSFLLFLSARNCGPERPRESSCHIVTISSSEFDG
Experimental: The adenylate cyclase assay was performed with an alpha-screen cAMP assay kit […]. The manufacturers protocol was followed. Briefly, ASPC-1 cells, known to endogenously express moderate levels of OSGPR116 were […] from the culture flask using a lysis buffer (0.1% BSA in PBS containing 20 μM rolipram and 0.54% TWEEN20), washed with PBS and diluted in assay buffer (0.1% BSA in PBS containing 20 μM rolipram) to a concentration of 600,000 cells/mL. White polystyrene 96-well plates were used for the assay. […] The plate was incubated at room temperature 30 min. For the standard cAMP curve used to quantify the data, 5 μl water+5 μl 4×cAMP in assay buffer+5 μl acceptor beads+5 μl cells were added to the plate. To terminate the assay, 10 ul of the donor beads solution was added (30 nM biotin-cAMP/60 μg streptavidin-donor beads in 1 mL lysis buffer). The plates were incubated overnight, protected from light. A Fusion-αHT counter was used to read the plates according to the kit's instructions.

Wistar rats = assay: In vivo acute feeding experiment in fasted rats; parameters: species or system rat; conditions: overnight fasted Wistar rats, 1 and 2h post-treatment, FIG. 13
Experimental: For the acute feeding experiment, the experimental conditions used as closely as possible replicated those of de Fonseca, F. R. et.al. (2001) Nature, 414:209–212. […] Oleoylethanolamide (3 and 10 mg/kg i.p.) or vehicle was administered 15 minutes prior to the availability of food. Oleoylethanolamide was dissolved in dimethylsulfoxide (DMSO) and administered in a 70% DMSO in sterile water solution. Following presentation of food, food intake (grams) was measured at 1, 2, 3 and 4h intervals and the results compared to a normal feeding and vehicle treated control group.

OSGPR116 [4] = target: T2, OSGPR116; assay: Yeast cell-based Fus1p-LacZ reporter assay, human OSGPR116; parameters: expressed in transfected cells; host or cells: engineered yeast (GPA1 and Ste3 deleted, G-alpha chimera, Fus1p-LacZ reporters); conditions: for rank of efficacy and potency among compounds tested: yeast-based reporter assay
From the text: as §1, §2, §3

OSGPR116 [5] = target: T2, OSGPR116; assay: Yeast reporter assay in strains with different G-alpha chimeras; assay type: cell-based; parameters: expressed in transfected cells; host or cells: yeast strains 13397, 13393, 15070, 18043, 20202, 10151 with different G-alpha chimeras; conditions: G-alpha-q (13397), G-alpha-i (13393, 15070, 18043), G-alpha-s (20202, 10151) strains; FIG. 10
From the text: The yeast cell-based reporter assays have previously been described in the literature (e.g. see Miret J. J., et. al. (2002) J. Biol. Chem. 277:6881–6887; Campbell R. M., et. al. (1999) Bioorg Med. Chem. Lett. 9:2413–2418; King K., et. al. (1990) Science. 250:121–123); WO 99/14344; WO 00/12704; and U.S. Pat. No. 6,100,042). Briefly, yeast cells have been engineered such that the endogenous yeast G-alpha (GPA1) has been deleted and replaced with G-protein chimeras constructed using multiple techniques. Additionally the endogenous yeast alpha-cell GPCR, Ste3 has been deleted to allow for a […] expression of a mammalian GPCR of choice. […] By placing β-galactosidase (LacZ) under the control of the Fus1 promoter (Fus1p), a system has been developed whereby receptor activation leads to an enzymatic read-out. […]
In order to perform fluorometric enzyme assays for β-galactosidase, yeast cells were grown overnight in liquid SD-LUT media to an unsaturated concentration (i.e. the cells are still dividing and have not yet reached stationary phase). […] The substrate may yield a fluorescent or calorimetric read-out upon the activity of the β-galactosidase. In these experiments, Fluorescein di (β-D-galactopyranoside) was used (FDG), a substrate for the enzyme that releases fluorescein, allowing a fluorometric read-out. […] The plates were then read in a fluorometer at 485/535 nm. […]

**Q.** What does the source list for `CCCCCCCC/C=C\CCCCCCCC(=O)NCCO` [oleoyl ethanolamide]?
**A.** effect on fluorescence (β-galactosidase activity) in yeast transformed with OSGPR116 receptor [1]: increase in fluorescence; response of vector controls in the same yeast strains ([2]; G-alpha chimera strains, FIG. 10): did not respond; increase in fluorescence in vector transformed cells ([2]; yeast without OSGPR116 expression, FIGS. 9a, 9b): not; forskolin-stimulated cAMP accumulation (OSGPR116 [3]; 10 μM compound with forskolin (10 μM)): inhibition; cAMP production (OSGPR116 [3]; 10 μM, without forskolin): did not cause an increase; feeding (food intake) (Wistar rats; 3 mg/kg i.p.): inhibition of feeding; feeding (food intake) (Wistar rats; 10 mg/kg i.p.): inhibition of feeding; effect on fluorescence (β-galactosidase activity) in yeast transformed with OSGPR116 receptor (OSGPR116 [4]; human isoform, FIG. 9a, Galpha-q5 yeast, 4h incubation): increase in fluorescence; rank of efficacy and potency among compounds tested (OSGPR116 [4]; listed as Oleoyl ethanolamide): most efficacious and potent; rank of efficacy and potency among compounds tested (OSGPR116 [4]; listed as oleoylethanolamide): optimal endogenously produced agonist; response in OSGPR116-transformed yeast with G-alpha chimeras (OSGPR116 [5]): produce a response
